The source of these data is publication PMC9684079, “Pharmacological targeting of glutamatergic neurons within the brainstem for weight reduction” (Nature Metabolism, 2022).

Each structure is given as a SMILES string.

For orientation: inhibition means the change of the read-out against control, counted positive when it falls.

Common to all, as to experiment: biochemical
What all share (parameters): Cerep/Eurofins selectivity panel, receptors, channels and transporters, per cent inhibition at 10 uM
Holding throughout (details): read-out: % Inhibition

The target in one assay is T1, APJ (Homo sapiens, UniProt P35414).
T1 construct: gene APLNR

Another assay deals with T2, Adenosine A2A (Homo sapiens, UniProt P29274).
T2 construct: gene ADORA2A
T2 sequence (P29274 whole entry): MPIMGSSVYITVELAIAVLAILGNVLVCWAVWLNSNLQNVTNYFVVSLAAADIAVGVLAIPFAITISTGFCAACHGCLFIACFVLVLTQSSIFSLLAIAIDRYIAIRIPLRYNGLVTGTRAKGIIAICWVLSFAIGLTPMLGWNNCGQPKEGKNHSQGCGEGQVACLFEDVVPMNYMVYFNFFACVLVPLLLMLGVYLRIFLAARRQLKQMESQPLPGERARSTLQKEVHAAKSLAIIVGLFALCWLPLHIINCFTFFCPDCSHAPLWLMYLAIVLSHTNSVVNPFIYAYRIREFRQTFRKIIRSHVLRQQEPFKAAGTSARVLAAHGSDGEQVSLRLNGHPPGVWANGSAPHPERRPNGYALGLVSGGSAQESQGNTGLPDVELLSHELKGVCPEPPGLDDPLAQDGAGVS

The target in another assay is T3, Adenosine A3 (Homo sapiens, UniProt P0DMS8).
T3 construct: gene ADORA3
T3 sequence (P0DMS8 whole entry): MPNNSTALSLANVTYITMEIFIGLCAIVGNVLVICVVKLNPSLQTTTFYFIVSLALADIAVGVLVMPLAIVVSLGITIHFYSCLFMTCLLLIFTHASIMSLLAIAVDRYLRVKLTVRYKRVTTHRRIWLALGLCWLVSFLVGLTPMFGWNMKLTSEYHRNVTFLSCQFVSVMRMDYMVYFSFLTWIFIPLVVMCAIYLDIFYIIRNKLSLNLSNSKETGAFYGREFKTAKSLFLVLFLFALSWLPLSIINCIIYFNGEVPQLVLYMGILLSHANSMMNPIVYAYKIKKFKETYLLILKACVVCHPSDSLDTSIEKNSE

For the next assay, the target named is T4, Adrenergic β1 (Homo sapiens, UniProt P08588).
T4 construct: gene ADRB1

In a further assay the target is T5, Adrenergic β3 (Homo sapiens, UniProt P13945).
T5 construct: gene ADRB3

Another assay addresses T6, Bradykinin B1 (Homo sapiens, UniProt P46663).
T6 construct: gene BDKRB1

The next assay concerns the target T7, Bradykinin B2 (Homo sapiens, UniProt P30411).
T7 construct: gene BDKRB2

For the next assay, the target named is T8, Cholecystokinin CCK2 (Homo sapiens, UniProt P32239).
T8 construct: gene CCKBR
T8 sequence (P32239 whole entry): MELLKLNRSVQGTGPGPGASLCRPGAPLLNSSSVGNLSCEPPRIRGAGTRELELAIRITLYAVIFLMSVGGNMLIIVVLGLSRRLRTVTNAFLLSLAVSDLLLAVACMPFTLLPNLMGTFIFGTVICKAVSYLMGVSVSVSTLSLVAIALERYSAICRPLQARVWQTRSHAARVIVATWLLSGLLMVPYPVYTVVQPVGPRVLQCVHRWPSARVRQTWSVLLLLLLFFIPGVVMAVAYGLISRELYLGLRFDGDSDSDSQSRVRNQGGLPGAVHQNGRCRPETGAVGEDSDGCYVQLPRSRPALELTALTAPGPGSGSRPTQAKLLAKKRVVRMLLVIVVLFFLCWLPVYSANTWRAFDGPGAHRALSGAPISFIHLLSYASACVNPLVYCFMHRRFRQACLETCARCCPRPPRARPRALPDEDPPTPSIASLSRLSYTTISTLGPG

The target of another assay is T9, Dopamine D2L (Homo sapiens, UniProt P14416).
T9 construct: gene DRD2; long isoform D2L

A further assay has as its target T10, Dopamine D3 (Homo sapiens, UniProt P35462).
T10 construct: gene DRD3

The next assay deals with T11, Dopamine D4.2 (Homo sapiens, UniProt P21917).
T11 construct: gene DRD4; D4.2
T11 sequence (P21917 whole entry): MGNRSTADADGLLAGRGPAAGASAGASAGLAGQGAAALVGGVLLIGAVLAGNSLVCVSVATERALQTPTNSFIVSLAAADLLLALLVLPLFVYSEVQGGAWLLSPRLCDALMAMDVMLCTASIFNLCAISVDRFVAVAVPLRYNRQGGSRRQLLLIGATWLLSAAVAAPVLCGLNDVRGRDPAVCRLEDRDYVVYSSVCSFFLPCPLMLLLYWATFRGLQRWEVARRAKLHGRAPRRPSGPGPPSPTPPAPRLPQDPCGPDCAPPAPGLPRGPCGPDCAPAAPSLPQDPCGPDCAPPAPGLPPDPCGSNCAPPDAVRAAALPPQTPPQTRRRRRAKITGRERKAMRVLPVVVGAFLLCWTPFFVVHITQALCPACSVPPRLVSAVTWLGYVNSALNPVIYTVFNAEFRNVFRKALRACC

Another assay addresses T12, Estrogen ERβ (Homo sapiens, UniProt Q92731).
T12 construct: gene ESR2

The next assay addresses T13, GABAB1A (Homo sapiens, UniProt Q9UBS5).
T13 construct: gene GABBR1; isoform 1A

Another assay has as its target T14, GABAB1B (Homo sapiens, UniProt Q9UBS5).
T14 construct: gene GABBR1; isoform 1B

The target of another assay is T15, Histamine H1 (Homo sapiens, UniProt P35367).
T15 construct: gene HRH1
T15 sequence (P35367 whole entry): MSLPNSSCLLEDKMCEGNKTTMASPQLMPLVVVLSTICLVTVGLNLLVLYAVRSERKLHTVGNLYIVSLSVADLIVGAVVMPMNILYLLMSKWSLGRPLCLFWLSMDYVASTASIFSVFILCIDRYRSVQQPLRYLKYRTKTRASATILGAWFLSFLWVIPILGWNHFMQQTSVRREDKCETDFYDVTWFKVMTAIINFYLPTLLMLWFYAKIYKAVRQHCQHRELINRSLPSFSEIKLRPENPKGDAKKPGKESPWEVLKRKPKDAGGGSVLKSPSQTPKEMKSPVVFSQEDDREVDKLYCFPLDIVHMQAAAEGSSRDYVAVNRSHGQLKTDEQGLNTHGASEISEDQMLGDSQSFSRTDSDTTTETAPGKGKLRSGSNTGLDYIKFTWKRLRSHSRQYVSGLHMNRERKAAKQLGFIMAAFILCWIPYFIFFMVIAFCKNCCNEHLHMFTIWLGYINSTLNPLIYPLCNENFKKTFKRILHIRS

The target in a further assay is T16, Histamine H3 (Homo sapiens, UniProt Q9Y5N1).
T16 construct: gene HRH3
T16 sequence (Q9Y5N1 whole entry): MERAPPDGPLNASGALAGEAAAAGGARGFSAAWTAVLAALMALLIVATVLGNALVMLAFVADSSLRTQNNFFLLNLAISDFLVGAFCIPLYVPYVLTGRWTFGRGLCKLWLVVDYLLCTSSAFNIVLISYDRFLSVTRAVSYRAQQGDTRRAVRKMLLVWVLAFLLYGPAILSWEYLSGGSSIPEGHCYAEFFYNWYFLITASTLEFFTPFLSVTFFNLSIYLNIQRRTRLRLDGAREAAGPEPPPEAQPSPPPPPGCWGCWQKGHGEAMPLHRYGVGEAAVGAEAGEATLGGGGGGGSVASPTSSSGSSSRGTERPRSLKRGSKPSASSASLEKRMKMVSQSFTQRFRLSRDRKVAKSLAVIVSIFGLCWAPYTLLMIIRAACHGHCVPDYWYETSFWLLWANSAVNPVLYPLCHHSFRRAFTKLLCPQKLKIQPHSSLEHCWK

The target in a further assay is T17, Muscarinic M4 (Homo sapiens, UniProt P08173).
T17 construct: gene CHRM4

The target in a further assay is T18, Opiate δ1 (OP1, DOP) (Homo sapiens, UniProt P41143).
T18 construct: gene OPRD1

The target in another assay is T19, Opiate μ(OP3, MOP) (Homo sapiens, UniProt P35372).
T19 construct: gene OPRM1
T19 sequence (P35372 whole entry): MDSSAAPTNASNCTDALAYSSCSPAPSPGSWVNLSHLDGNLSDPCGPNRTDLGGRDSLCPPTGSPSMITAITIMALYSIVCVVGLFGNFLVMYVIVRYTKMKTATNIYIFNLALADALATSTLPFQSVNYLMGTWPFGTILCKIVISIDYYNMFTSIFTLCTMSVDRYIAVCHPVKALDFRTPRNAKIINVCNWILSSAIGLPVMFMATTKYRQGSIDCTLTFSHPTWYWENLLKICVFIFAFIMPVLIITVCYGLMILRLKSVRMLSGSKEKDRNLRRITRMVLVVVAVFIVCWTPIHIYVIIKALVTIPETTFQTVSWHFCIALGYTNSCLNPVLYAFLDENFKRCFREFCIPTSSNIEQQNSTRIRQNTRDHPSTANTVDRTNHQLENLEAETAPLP

Another assay has as its target T20, Progesterone PR-B (Homo sapiens, UniProt P06401).
T20 construct: gene PGR; PR-B isoform

Assay [1] deals with T21, Serotonin (5-Hydroxytryptamine) 5-HT2B (Homo sapiens, UniProt P41595).
T21 construct: gene HTR2B
T21 sequence (P41595 whole entry): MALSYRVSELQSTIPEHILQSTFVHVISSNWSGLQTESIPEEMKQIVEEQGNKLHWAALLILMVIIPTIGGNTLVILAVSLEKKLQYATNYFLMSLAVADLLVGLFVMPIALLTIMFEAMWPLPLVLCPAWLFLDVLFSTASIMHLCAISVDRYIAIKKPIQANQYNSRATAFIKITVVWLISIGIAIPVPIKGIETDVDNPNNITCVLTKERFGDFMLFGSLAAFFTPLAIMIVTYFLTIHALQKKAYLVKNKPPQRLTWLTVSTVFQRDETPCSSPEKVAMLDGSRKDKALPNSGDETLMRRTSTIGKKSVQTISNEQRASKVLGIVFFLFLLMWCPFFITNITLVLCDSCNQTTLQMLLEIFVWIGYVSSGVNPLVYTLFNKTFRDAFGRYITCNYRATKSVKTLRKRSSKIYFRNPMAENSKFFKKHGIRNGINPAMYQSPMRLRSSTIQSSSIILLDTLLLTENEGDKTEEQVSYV

Another assay deals with T22, Tachykinin NK1 (Homo sapiens, UniProt P25103).
T22 construct: gene TACR1

For the next assay, the target named is T23, Vasopressin V1a (Homo sapiens, UniProt P37288).
T23 construct: gene AVPR1A
T23 sequence (P37288 whole entry): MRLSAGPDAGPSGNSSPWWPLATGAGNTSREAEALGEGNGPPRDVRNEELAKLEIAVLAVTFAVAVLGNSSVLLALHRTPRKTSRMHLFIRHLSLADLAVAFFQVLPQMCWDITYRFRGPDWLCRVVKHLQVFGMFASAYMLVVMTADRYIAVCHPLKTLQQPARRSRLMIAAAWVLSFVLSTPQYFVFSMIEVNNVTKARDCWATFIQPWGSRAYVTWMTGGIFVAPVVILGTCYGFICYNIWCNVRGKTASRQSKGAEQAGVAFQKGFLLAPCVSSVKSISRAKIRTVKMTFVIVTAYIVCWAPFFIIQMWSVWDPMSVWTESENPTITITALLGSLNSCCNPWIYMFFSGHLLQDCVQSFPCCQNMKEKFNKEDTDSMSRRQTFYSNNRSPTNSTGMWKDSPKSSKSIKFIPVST

A further assay addresses T24, Vasopressin V2 (Homo sapiens, UniProt P30518).
T24 construct: gene AVPR2

T10 sequence (P35462 whole entry): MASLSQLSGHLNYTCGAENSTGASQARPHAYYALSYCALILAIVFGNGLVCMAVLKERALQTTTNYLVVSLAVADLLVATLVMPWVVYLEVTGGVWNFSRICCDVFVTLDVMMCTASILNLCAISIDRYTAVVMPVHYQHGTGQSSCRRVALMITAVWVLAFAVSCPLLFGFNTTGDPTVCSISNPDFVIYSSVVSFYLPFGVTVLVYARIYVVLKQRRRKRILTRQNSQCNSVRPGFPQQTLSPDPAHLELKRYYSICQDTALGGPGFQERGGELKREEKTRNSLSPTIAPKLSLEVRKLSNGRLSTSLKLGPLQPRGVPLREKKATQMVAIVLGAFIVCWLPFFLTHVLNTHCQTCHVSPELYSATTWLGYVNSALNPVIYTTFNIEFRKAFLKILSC
T6 sequence (P46663 whole entry): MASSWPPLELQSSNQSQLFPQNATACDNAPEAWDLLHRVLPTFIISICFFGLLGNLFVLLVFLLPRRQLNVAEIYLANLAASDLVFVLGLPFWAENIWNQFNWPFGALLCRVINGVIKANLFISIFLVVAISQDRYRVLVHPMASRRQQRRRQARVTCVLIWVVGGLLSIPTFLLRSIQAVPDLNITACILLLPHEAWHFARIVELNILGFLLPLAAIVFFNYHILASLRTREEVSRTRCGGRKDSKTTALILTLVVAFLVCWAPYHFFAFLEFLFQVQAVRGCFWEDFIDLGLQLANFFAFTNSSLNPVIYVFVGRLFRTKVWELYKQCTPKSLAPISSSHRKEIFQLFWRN

Turning to `C[C@]1(Nc2cnc(C(F)(F)F)cn2)CCC[C@@H]1NC(=O)c1ncccc1-n1nccn1` [CVN45502], the inhibition at 10 µM at APJ was -4%; on Adenosine A2A, 2%; on Adenosine A3 it was -2%; on Adrenergic β1, -14%; at Adrenergic β3 it was 0%; on Bradykinin B1 it was 4%. Also, the inhibition at 10 µM on Bradykinin B2 was -18%; on Cholecystokinin CCK2 it was 5%; on Dopamine D2L it was 7%; on Dopamine D3, -2%; at Dopamine D4.2, -9%; at Estrogen ERβ, 4%. Also, the inhibition at 10 µM at GABAB1A is -8%; on GABAB1B it was -1%; at Histamine H1 it was 2%; at Histamine H3, -4%; at Muscarinic M4 it was 10%; at Opiate δ1 (OP1, DOP), -4%. Besides, the inhibition at 10 µM is -3% on Opiate μ(OP3, MOP); 21% on Progesterone PR-B; 4% in [1]; 12% on Tachykinin NK1; -14% at Vasopressin V1a; -4% at Vasopressin V2.
